Assay results published in patent publication US20230286946A1, “DIFLUOROMETHYL-PYRIDIN-2-YL TRIAZOLES” (Boehringer Ingelheim International GmbH, priority 2020, published 2023).

Biological target: T1, α5ß2 γ2 GABAA Receptor (Homo sapiens, UniProt P18507+P31644)
T1 sequence (P31644 32-462): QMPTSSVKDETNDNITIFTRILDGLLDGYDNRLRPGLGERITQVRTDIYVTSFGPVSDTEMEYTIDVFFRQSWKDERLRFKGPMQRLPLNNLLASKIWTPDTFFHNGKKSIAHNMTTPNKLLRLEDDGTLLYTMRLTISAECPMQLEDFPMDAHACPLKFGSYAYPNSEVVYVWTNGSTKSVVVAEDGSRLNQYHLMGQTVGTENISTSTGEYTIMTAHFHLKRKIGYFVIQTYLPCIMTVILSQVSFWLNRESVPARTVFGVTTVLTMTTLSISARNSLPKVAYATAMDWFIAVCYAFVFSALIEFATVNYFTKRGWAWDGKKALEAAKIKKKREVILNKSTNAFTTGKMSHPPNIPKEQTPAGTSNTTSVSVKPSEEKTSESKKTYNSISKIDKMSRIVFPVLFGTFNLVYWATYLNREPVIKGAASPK
T1 sequence (P18507 40-376 limits assumed): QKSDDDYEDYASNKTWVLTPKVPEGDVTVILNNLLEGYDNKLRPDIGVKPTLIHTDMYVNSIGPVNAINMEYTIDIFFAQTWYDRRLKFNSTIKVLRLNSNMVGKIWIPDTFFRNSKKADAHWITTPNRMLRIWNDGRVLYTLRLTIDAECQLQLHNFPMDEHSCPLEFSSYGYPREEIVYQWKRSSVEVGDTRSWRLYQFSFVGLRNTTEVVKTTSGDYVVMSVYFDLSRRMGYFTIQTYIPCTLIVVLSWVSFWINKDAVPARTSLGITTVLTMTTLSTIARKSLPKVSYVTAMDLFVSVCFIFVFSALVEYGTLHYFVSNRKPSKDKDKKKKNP
Assay: Assay B: in vitro evaluation of modulation of α5ß2γ2 GABAA receptor, two-electrode voltage clamp in oocytes
Format: cell-based
Conditions: for EC50: co-application with 0.5 μM GABA, oocytes, read-out: Assay B: GABAA α 5 β 3 γ 2 EC50
Protocol: Assay B: In Vitro Evaluation of Modulation of α5ß2 γ2 GABAA Receptor.
Modulatory efficacy of compounds of formular (I) is determined electrophysiological recordings in oocytes using the two-electrode voltage clamp (TEVC) technique. Oocytes are injected with cRNA for human GABAA receptor subunits α5, ß2 and γ2 in a 3:1:3 ratio and modulatory efficacy is evaluated by co-applications with a submaximal EC5-20 GABA concentration (0.5 μM) termed GABA control. As a standard, the compounds are tested in five concentrations (3.16, 0.316, 0.0316, 0.00316 and 0.000316 μM) on each oocyte starting with the lowest concentration. Background subtracted peak current amplitudes are normalized to the respective GABAcontrol current, converted to % change and depicted +/−S.E.M. as a function of increasing compound concentrations. Plotted datapoints are fitted to the empirical Hill equation using non-linear regression. 95% confidence intervals for maximal efficacy (Bottom) and potency (Log EC50) are derived from this fitting routine.

Compound | EC50 | Assay B: GABAA α 5 β 3 γ 2 Emax vs GABA
Cc1nnn(-c2ccc(C(F)F)cn2)c1COc1ccc(-c2ccc(C#N)nc2)nn1 [Example 8] | – | 2.7%
Cn1nnc(-c2ccc(C(F)F)cn2)c1COc1ccc(-n2cccn2)nn1 [Example 50] | 12 nM | -13.7%
Cc1nnn(-c2ccc(C(F)F)cn2)c1COc1ccc(-n2ncnc2C)nn1 [Example 38] | 22.8 nM | -22.5%
CCn1cc(-c2ccc(OCc3c(-c4ccc(C(F)F)cn4)nnn3C)nn2)cn1 [Example 22] | 26.9 nM | -14.9%
Cc1nnn(-c2ccc(C(F)F)cn2)c1COc1ccc(-c2ccnnc2)nn1 [Example 17] | 1 nM | -33.2%
Cc1nnn(-c2ccc(C(F)F)cn2)c1COc1ccc(-n2cc(C#N)cn2)nn1 [Example 37] | 37.3 nM | -25.3%
Cn1nnc(-c2ccc(C(F)F)cn2)c1COc1ccc(-c2cnccn2)nn1 [Example 39] | 354 nM | -24.6%
Cn1nnc(-c2ccc(C(F)F)cn2)c1COc1ccc(-n2cc(C#N)cn2)nn1 [Example 49] | – | 5.7%
Cc1c(-c2ccc(OCc3c(-c4ccc(C(F)F)cn4)nnn3C)nn2)cnn1C [Example 33] | 29.5 nM | -21%
Cn1nnc(-c2ccc(C(F)F)cn2)c1COc1ccc(-c2cn[nH]c2)nn1 [Example 24] | 9.8 nM | -14.7%
Cc1nnn(-c2ccc(C(F)F)cn2)c1COc1ccc(-c2cn[nH]c2)nn1 [Example 4] | 93 nM | -22.3%
Cc1nnn(-c2ccc(C(F)F)cn2)c1COc1ccc(-c2cnccn2)nn1 [Example 56, 3-({1-[5-(difluoromethyl)pyridin-2-yl]-4-methyl-1H-1,2,3-triazol-5-yl}methoxy)-6-(pyrazin-2-yl)pyridazine] | 14.5 nM | -17.7%
Cc1ncnn1-c1ccc(OCc2c(-c3ccc(C(F)F)cn3)nnn2C)nn1 [Example 48, 3-({4-[5-(difluoromethyl)pyridin-2-yl]-1-methyl-1H-1,2,3-triazol-5-yl}methoxy)-6-(5-methyl-1H-1,2,4-triazol-1-yl)pyridazine] | 78.9 nM | -13.2%
Cc1n[nH]c(C)c1-c1ccc(OCc2c(C)nnn2-c2ccc(C(F)F)cn2)nn1 [Example 15] | 34.7 nM | -24.7%
Cc1ncc(-c2ccc(OCc3c(C)nnn3-c3ccc(C(F)F)cn3)nn2)o1 [Example 18] | 23.3 nM | -28.7%
Cc1nnn(-c2ccc(C(F)F)cn2)c1COc1ccc(-n2nccn2)nn1 [Example 43] | 24.8 nM | -20.2%
CNc1cccc(-c2ccc(OCc3c(C)nnn3-c3ccc(C(F)F)cn3)nn2)n1 [Example 14] | 89 nM | -21%
Cc1nnn(-c2ccc(C(F)F)cn2)c1COc1ccc(-c2cnc(N)nc2)nn1 [Example 2] | 92.5 nM | -25.3%
Cc1cc(-c2ccc(OCc3c(C)nnn3-c3ccc(C(F)F)cn3)nn2)cnn1 [Example 3] | 6.6 nM | -24.7%

Next, values leading:

EC50 | Assay B: GABAA α 5 β 3 γ 2 Emax vs GABA | Compound
3.9 nM | – | Cn1nnc(-c2ccc(C(F)F)cn2)c1COc1ccc(-n2ccc(C#N)n2)nn1 [Example 53]
13.9 nM | -8.8% | Cc1nnn(-c2ccc(C(F)F)cn2)c1COc1ccc(-c2cccc(C(N)=O)c2)nn1 [Example 6]
15.8 nM | -25% | Cc1nnn(-c2ccc(C(F)F)cn2)c1COc1ccc(-n2cnc(C#N)c2)nn1 [Example 42, 1-[6-({1-[5-(difluoromethyl)pyridin-2-yl]-4-methyl-1H-1,2,3-triazol-5-yl}methoxy)pyridazin-3-yl]-1H-imidazole-4-carbonitrile]
12.7 nM | -6.3% | Cc1nnn(-c2ccc(C(F)F)cn2)c1COc1ccc(-c2cnn(CC#N)c2)nn1 [Example 7]
20 nM | -12.3% | COc1ncc(-c2ccc(OCc3c(-c4ccc(C(F)F)cn4)nnn3C)nn2)cn1 [Example 31]
85.9 nM | -20.3% | Cc1nnn(-c2ccc(C(F)F)cn2)c1COc1ccc(-c2ccc(S(C)(=O)=O)nc2)nn1 [Example 16]
63 nM | -9.6% | Cn1nnc(-c2ccc(C(F)F)cn2)c1COc1ccc(-c2cnc3nonc3c2)nn1 [Example 35]
64 nM | -28.5% | Cc1nnn(-c2ccc(C(F)F)cn2)c1COc1ccc(-c2ccc(N)nc2)nn1 [Example 19]
– | -3.3% | Cn1nnc(-c2ccc(C(F)F)cn2)c1COc1ccc(-c2cnn(C3CCC3)c2)nn1 [Example 32]
14.6 nM | -20% | Cn1nnc(-c2ccc(C(F)F)cn2)c1COc1ccc(-c2cccc(C(N)=O)c2)nn1 [Example 28]
41.3 nM | -24.9% | Cc1nnn(-c2ccc(C(F)F)cn2)c1COc1ccc(-c2ccc(=O)n(C)c2)nn1 [Example 1, 5-[6-({1-[5-(difluoromethyl)pyridin-2-yl]-4-methyl-1H-1,2,3-triazol-5-yl}methoxy)pyridazin-3-yl]-1-methyl-1,2-dihydropyridin-2-one]
8.2 nM | -11% | Cn1nnc(-c2ccc(C(F)F)cn2)c1COc1ccc(-c2ccc(N)nc2)nn1 [Example 25]
11.5 nM | -29% | Cc1c(-c2ccc(OCc3c(-c4ccc(C(F)F)cn4)nnn3C)nn2)cc(C#N)n1C [Example 29]
2 nM | -16% | Cn1nnc(-c2ccc(C(F)F)cn2)c1COc1ccc(-n2cnc(C#N)c2)nn1 [Example 52]
4.6 nM | -4.7% | Cc1nn(C)cc1-c1ccc(OCc2c(-c3ccc(C(F)F)cn3)nnn2C)nn1 [Example 30]
11.6 nM | -32.3% | Cc1nnn(-c2ccc(C(F)F)cn2)c1COc1ccc(-c2c[nH]c(=O)c(F)c2)nn1 [Example 20]
11.6 nM | -32.3% | Cc1nnn(-c2ccc(C(F)F)cn2)c1COc1ccc(-c2cc[nH]n2)nn1 [Example 5]
3.1 nM | -8% | Cn1nnc(-c2ccc(C(F)F)cn2)c1COc1ccc(-c2ccc(S(C)(=O)=O)nc2)nn1 [Example 23]
147 nM | -12.3% | Cc1nnn(-c2ccc(C(F)F)cn2)c1COc1ccc(-c2ccc(C#N)s2)nn1 [Example 12]
